Experiments:
[1] = tested on: STING-mediated interferon (IFN) signal reporter gene in THP1-Blue™ ISG cells; assay: STING-mediated interferon (IFN) signal SEAP reporter gene assay in THP1-Blue ISG cells; type: cell-based, human; conditions: for EC50: 16 h incubation, SEAP reporter read at OD620nm; for Emax (OD620nm): highest OD620nm value generated by stimulation of the compound, 16 h; for agonistic effect on the STING-mediated Interferon (IFN) signal pathway: result in words
Source text: In this experiment, the activity of the SEAP (secreted embryonic alkaline phosphatase) reporter gene regulated by the IFN regulatory factor (interferon regulatory factor) was detected in the THP1-Blue™ ISG cells (InvivoGen) to evaluate the agonistic effect of the compounds to be tested on the STING-mediated IFN signal pathway at the cellular level.
The THP1-Blue™ ISG cells (InvivoGen) in the logarithmic phase were centrifuged, and resuspended in a cell culture solution to a density of 2×10^6 cells/ml. The cell suspension was inoculated in a 96-well cell culture plate (Corning) at 50 μL/well. The mother liquor of the compound to be tested was gradiently diluted with a cell culture solution to obtain a 2× working concentration diluted solution (control compounds 1 and 2 were diluted at a 3-fold gradient: 200, 66.67, 22.22, 7.41, 2.47, 0.82, 0.27 and 0 μM; compounds 1, 2, 4, 6, 8, and 23 were diluted at a 8-fold gradient: 60, 7.5, 0.94, 0.12, 0.015, 0.0018, 0.00023 and 0 μM; and compounds 3 and 5 were diluted at a 10-fold gradient: 10, 1, 0.1, 0.01, 0.001, 0.0001, 0.00001 and 0 μM). The 2× working concentration diluted solution of the compound was added into a 96-well plate (50 μl of the culture solution containing 2% DMSO was added into the negative control well) at 50 μL/well. The culture plate was then placed in a cell incubator, and incubated for 16 h. After the cell incubation, 10 μL of the cell culture supernatant was transferred to a 96-well plate, and a QUANTI-Blue (InvivoGen) solution was added at 90 μL/well. The cells were incubated at 37° C. for 3 h. The absorbance at 620 nm (OD620nm) was read with a microplate reader.
In the table, EC50 refers to the concentration of a compound when ODM620nm value generated by stimulation of the compound reaches half of Emax; and Emax refers to the highest OD620nm value generated by stimulation of the compound.

[2] = tested on: STING and its downstream proteins TBK1 and IRF3 in THP-1 cells; assay: Western blotting of phosphorylation of STING signal pathway proteins in human THP-1 cells; type: cell-based; conditions: 3 hours, protein blotting, FIGS. 1-5, result in words
Source text: In this experiment, the changes in the phosphorylation levels of STING and its downstream proteins TBK1 (TANK-binding kinase 1) and IRF3 (interferon regulatory factor 3) were detected by protein blotting to evaluate the agonistic effect of the test compounds on the STING signal pathway at the cellular level.
The THP-1 cells in the logarithmic phase were centrifuged, and resuspended in a cell culture solution to a density of […]. The cell suspension was inoculated into a 12-well cell culture plate (Corning) at 0.5 mL/well. The compound to be tested was diluted with a cell culture solution to 2× working solution concentration (control compounds 1 and 2: 60 μM; compounds 1 and 3: 0.6 μM, 6 μM, and 60 μM; compounds 2, 4, 6 and 8: 6 μM, 20 μM, and 60 μM). 0.5 mL of the diluted solution of the compound was added into a 12-well plate (500 μl of the culture solution containing 2% DMSO was added into the negative control well), and the plate was incubated in a cell incubator for 3 hours. After the incubation, the cells were collected by centrifugation, lysed with 60 μL cell lysis buffer (CST) for 30 minutes, and centrifuged at 12,000 rpm for 15 minutes. The supernatant was collected to determine the protein concentration, and then an appropriate amount of 5× protein loading buffer was added. The mixture was heated at 95° C. for 10 minutes to prepare a protein electrophoresis sample. Finally protein blotting was performed to detect the phosphorylation level of the corresponding protein. The primary antibodies used in the protein blotting were purchased from CST: STING (D2P2F) rabbit mAb, Phospho-STING (Ser366) rabbit mAb, Phospho-IRF3 (Ser396) (D601M) rabbit mAb, IRF3 (D83B9) rabbit mAb, TBK1/NAK (D1B4) rabbit mAb, Phospho-TBK1/NAK (Ser172) (D52C2) XP® rabbit mAb, and GAPDH (D16H11) rabbit mAb; and the secondary antibody horseradish peroxidase-conjugated goat anti-rabbit IgG (H+L) was purchased from Zsgb-bio.

[3] = tested on: STING pathway cytokine hIFN-β in human THP-1 cells; assay: ELISA of STING pathway cytokine hIFN-β expression in human THP-1 cells; type: cell-based; conditions: 8 hours, ELISA; for EC50: hIFN-β expression; for Emax: highest expression of hIFN-β
Source text: In this experiment, the expression of STING signal pathway cytokine hIFN-β was detected in THP1 cells (Nanjing Cobioer) by the ELISA method, so as to evaluate the agonistic effect of the compounds to be tested on the expression of STING pathway cytokine hIFN-β at the cellular level.
THP1 cells (Nanjing Cobioer) in the logarithmic phase were centrifuged, and resuspended in a cell culture solution to a density of 8×10^6 cells/ml. The cell suspension was inoculated into a 24-well cell culture plate (Corning) at 250 μL/well.
The mother liquor of the compound to be tested was diluted with a cell culture solution to obtain a 2× working concentration diluted solution (control compounds 1 and 2 were diluted at a 2-fold gradient: 200, 100, 50, 25, 12.5, 6.25, 3.125, 1.5625 and 0 μM; and compounds 4, 6, and 8 were diluted at a 3-fold gradient: 200, 66.67, 22.22, 7.41, 2.47, 0.82, 0.27, 0.091 and 0 μM). The 2× working concentration diluted solution of the compound was added into 24-well plate (250 μl of the culture solution containing 2% DMSO was added into the negative control well) at 250 μL/well. The culture plate was placed in a cell culture incubator, and incubated for 8 hours. After the cell incubation, the supernatant was collected by centrifugation at 300 g×5 min, and the hIFN-β content (pg/ml) in the cell culture supernatant was detected according to the operating instructions of the VeriKine Human […] ELISA kit from PBL (obtained by conversion of the […] absorbance-hIFN-β standard concentration standard curve and the OD450 nm absorbance value read by the microplate reader). […] was calculated through log(agonist) vs. response—Variable slope fitting by the Graphpad Prism software, and the experimental results are shown in Table 2.
In the table, EC50 refers to the concentration of a compound when the expression of hIFN-β generated by stimulation of the compound reaches half of Emax and Emax refers to the highest expression of hIFN-β generated by stimulation of the compound.

[4] = tested on: STING pathway cytokine mIFN-β in mouse Raw264.7 cells; assay: ELISA of STING pathway cytokine mIFN-β expression in mouse Raw264.7 cells; type: cell-based; conditions: 6 h, ELISA; for Emax: highest expression of mIFN-β; for EC50: mIFN-β expression
Source text: In this experiment, the expression of STING signal pathway cytokine mIFN-β was detected in Raw264.7 cells (Nanjing Cobioer) by the ELISA method, so as to evaluate the agonistic effect of the compound to be tested on the expression of STING pathway cytokine mIFN-β at the cellular level.
Raw264.7 cells (Nanjing Cobioer) in the logarithmic phase were centrifuged, and resuspended in a cell culture solution to a density of 1.6×10^6 cells/ml. The cell suspension was inoculated into a 24-well cell culture plate (Corning) at 250 μL/well. The mother liquor of the compound to be tested was gradiently diluted with a cell culture solution to obtain a 2× working concentration diluted solution (control compound 1 was diluted at a 3-fold gradient: 200, 66.67, 22.22, 7.41, 2.47, 0.82, 0.27 and 0 μM; control compound 2 was diluted at a 2-fold gradient: 200, 100, 50, 25, 12.5, 6.25, 3.125 and 0 μM; and compounds 4, 6 and 8 were diluted at a 4-fold gradient: 200, 50, 12.5, 3.13, 0.78, 0.20, 0.049 and 0 μM). The 2× working concentration diluted solution of the compound was added into a 24-well plate (250 μl of the culture solution containing 2% DMSO was added into the negative control well) at 250 μL/well. The culture plate was then placed in a cell incubator, and incubated for 6 h. After the cell incubation, the supernatant was collected by centrifugation at 300 g×5 min, and the mIFN-β content (pg/ml) in the cell culture supernatant was detected according to the operating instructions of the VeriKinem Mouse IFN Beta ELISA Kit from PBL (obtained by conversion of the OD450 nm absorbance-mIFN-β standard concentration standard curve and the OD450 nm absorbance value read by the microplate reader). EC50 was calculated through log(agonist) vs. response—Variable slope fitting by the Graphpad Prism software, and the experimental results are shown in Table 3.
In the table, EC50 refers to the concentration of a compound when the expression of mIFN-β generated by stimulation of the compound reaches half of Emax; and Emax refers to the highest expression of mIFN-β generated by stimulation of the compound.

[5] = target: T1, hSTING protein (Homo sapiens, UniProt Q86WV6); assay: Human STING binding kit (HTRF) competitive binding assay
T1 construct: purchased Cisbio
T1 sequence (Q86WV6 whole entry H232R): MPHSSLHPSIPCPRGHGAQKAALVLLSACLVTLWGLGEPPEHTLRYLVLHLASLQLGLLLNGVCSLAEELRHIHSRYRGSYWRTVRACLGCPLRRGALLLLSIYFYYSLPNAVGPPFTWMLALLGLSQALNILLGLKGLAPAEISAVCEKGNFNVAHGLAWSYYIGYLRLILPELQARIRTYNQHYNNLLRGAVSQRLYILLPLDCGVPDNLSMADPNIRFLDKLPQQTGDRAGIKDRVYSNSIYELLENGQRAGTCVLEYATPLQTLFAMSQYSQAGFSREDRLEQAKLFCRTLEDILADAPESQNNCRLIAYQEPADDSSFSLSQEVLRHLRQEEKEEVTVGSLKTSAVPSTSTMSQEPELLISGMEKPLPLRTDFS
Source text: In this experiment, the capability of the compound and the specific ligand (d2-STING-ligand) in a Human STING binding kit from Cisbio for competitively binding to the 6×His-hSTING protein was detected using the Human STING binding kit (HTRF method), so as to evaluate the binding affinity between the compound to be tested and the hSTING protein.
The compound was gradiently diluted with a dilution buffer in the Human STING binding kit (the diluent buffer reagent) to obtain a 4× working concentration diluted solution. […] The 6×His-hSTING protein (50× in the mother liquor) was diluted to 1× with the detection buffer in the Human STING binding kit (the detection buffer reagent). 5 μl of the diluted solution was added into the corresponding wells of a 384-well plate, and the well with no protein and no compound was set as a negative control well (min), while the well with the protein and no compound was set as a positive control well (max). The d2-STING-ligand and Tb^3+-anti-6×His-antibody (both 50× in the mother liquor) were diluted to 1× with the detection buffer in the Human STING binding kit (the detection buffer reagent), and mixed uniformly at a ratio of 1:1. 10 μl of the mixed solution was added to the corresponding wells of a 384-well plate. The plate was sealed and incubated at room temperature (25° C.) for 3 h. A BMG microplate reader was used to read HTRF, and the ratio was calculated according to the following formula: Ratio=signal665nm/signal620nm×10000. […] IC50 was calculated through log(inhibitor) vs. response—Variable slope fitting by the Graphpad Prism software.

SMILES	EC50 ([1]; Homo sapiens) [µM]	Ki ([5]; calculated as Ki=1/2*IC50 per kit instructions) [µM]	IC50 ([5]; competition with d2-STING-ligand for 6×His-hSTING, HTRF, 3 h at 25° C.) [µM]	Emax (OD620nm) [1] [OD620nm]	agonistic effect on the STING-mediated Interferon (IFN) signal pathway [1]	agonistic effect on the phosphorylation levels of STING, TBK1 and IRF3 [2]	EC50 [1] [µM]	EC50 [3] [µM]	Emax [3] [pg/mL]	Emax [4] [pg/mL]	EC50 [4] [µM]
CCOC(=O)CCC(=O)c1cc2cc(OC)c(OCCCOc3cc4sc(C(=O)N(C)CCC(=O)OCC)cc4cc3OC)cc2s1 [Compound 1, ethyl 4-(6-(3-((2-((3-ethoxy-3-oxopropyl)(methyl)carbamoyl)-5-methoxybenzo[b]thiophen-6-yl)oxy)propoxy)-5-methoxybenzo[b]thiophen-2-yl)-4-oxobutyrate]	0.00057			1.54	strong agonistic effects	strong agonistic effects					
CCOC(=O)CCC(=O)c1cc2cc(OC)c(OCCCOc3cc4cc(C(=O)N(C)CCC(=O)OCC)sc4cc3OC)cc2s1 [Compound 3]				1.92	strong agonistic effects	strong agonistic effects	0.00358				
Nc1ncnc2c1ncn2[C@@H]1O[C@@H]2COP(=O)([S-])O[C@@H]3[C@H](O)[C@@H](COP([O-])(=S)O[C@H]2[C@H]1O)O[C@H]3n1cnc2c(N)ncnc21.[Na+].[Na+] (stereo partly shown) [Control Compound 1, ADU-S100, reference compound]				2.03			3.88	14	1476.6	1248.94	2.74

Now from value to compound, other results behind:

EC50 ([1]; Homo sapiens) [µM]	Ki ([5]; calculated as Ki=1/2*IC50 per kit instructions) [µM]	IC50 ([5]; competition with d2-STING-ligand for 6×His-hSTING, HTRF, 3 h at 25° C.) [µM]	SMILES	Emax (OD620nm) [1] [OD620nm]	agonistic effect on the STING-mediated Interferon (IFN) signal pathway [1]	agonistic effect on the phosphorylation levels of STING, TBK1 and IRF3 [2]	EC50 [1] [µM]	EC50 [3] [µM]	Emax [3] [pg/mL]	Emax [4] [pg/mL]	EC50 [4] [µM]
0.0014			CCOC(=O)CCC(=O)c1cc2cc(OCCCOc3cc4sc(C(=O)N(C)CCC(=O)OCC)cc4cc3OC)c(OC)cc2s1 [Compound 5, ethyl 4-(5-(3-((2-((3-ethoxy-3-oxopropyl)(methyl)carbamoyl)-5-methoxybenzo[b]thiophen-6-yl)oxy)propoxy)-6-methoxybenzo[b]thiophen-2-yl)-4-oxobutyrate]	1.94	strong agonistic effects						
0.974			CCOC(=O)CCC(=O)c1cc2cc(OCCCOc3cc4cc(C(=O)N(C)CCCOC)sc4cc3OC)c(OC)cc2s1 [Compound 23, ethyl 4-(6-methoxy-5-(3-((6-methoxy-2-((3-methoxypropyl)(methyl)carbamoyl)benzo[b]thiophen-5-yl)oxy)propoxy)benzo[b]thiophen-2-yl)-4-oxobutyrate]	1.74	strong agonistic effects						
4.95	1.89	3.78	COc1cc2cc(C(=O)CCC(=O)O)sc2cc1OC [Control Compound 2, reference compound]	1.49				16.8	1373.9	1106.15	24.6
